These results are taken from patent US10000498B2, “Selective proton coupled folate transporter and folate receptor, and GARFTase inhibitor compounds and methods of using the same” (Duquesne University of the Holy Spirit, priority 2008, dated 2018).

The subject of data set [1] is PC43-10 cells (hRFC-expressing Chinese hamster ovary). Put plainly: Growth inhibition of hRFC-expressing PC43-10 CHO cells. The format is cell-based.
The subject of data set [2] is KB human tumor cells (hRFC/FRα). The data set can be described thus: Growth inhibition of KB human tumor cells (Cell Titer-blue cytotoxicity screen), with or without folic acid. The format is cell-based. Conditions: for IC50: Homo sapiens.
Data set [3] addresses T1, purified recombinant mouse GARFTase (Mus musculus, UniProt Q64737).
T1 sequence (Q64737 2-1010 limits assumed): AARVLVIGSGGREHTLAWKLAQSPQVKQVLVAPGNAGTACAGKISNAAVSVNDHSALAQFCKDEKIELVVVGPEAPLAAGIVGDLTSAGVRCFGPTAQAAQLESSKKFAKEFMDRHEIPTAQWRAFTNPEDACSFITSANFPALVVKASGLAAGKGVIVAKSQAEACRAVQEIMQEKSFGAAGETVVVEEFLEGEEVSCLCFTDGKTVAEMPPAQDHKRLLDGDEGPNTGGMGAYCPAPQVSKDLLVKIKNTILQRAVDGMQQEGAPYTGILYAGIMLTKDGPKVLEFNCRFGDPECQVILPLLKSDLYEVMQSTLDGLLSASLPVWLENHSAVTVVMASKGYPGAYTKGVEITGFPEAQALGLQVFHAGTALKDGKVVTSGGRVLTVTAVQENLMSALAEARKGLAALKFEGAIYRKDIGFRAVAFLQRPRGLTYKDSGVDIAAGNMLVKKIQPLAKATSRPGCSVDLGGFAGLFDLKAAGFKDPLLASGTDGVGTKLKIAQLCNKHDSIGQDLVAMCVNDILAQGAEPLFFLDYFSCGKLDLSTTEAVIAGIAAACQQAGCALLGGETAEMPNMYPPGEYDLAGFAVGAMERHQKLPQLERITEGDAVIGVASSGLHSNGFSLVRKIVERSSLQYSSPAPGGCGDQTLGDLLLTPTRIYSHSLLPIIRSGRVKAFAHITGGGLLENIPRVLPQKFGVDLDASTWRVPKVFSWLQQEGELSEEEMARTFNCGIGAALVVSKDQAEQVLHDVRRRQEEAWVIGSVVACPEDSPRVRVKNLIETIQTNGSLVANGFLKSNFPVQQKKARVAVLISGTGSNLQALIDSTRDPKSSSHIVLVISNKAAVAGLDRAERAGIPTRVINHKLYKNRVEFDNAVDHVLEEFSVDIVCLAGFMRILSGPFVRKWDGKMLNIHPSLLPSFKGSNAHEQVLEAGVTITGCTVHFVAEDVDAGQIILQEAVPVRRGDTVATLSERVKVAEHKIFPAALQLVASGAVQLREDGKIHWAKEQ
Put plainly: In vitro GARFTase inhibition assay. The class given is biochemical.

The target of a further data set is T2, GARFTase (Homo sapiens, UniProt P22102).
T2 construct: In the in situ GARFTase assay, incorporation of ^14C-glycine into formyl glycinamide ribonucleotide was measured; endogenous in cells
T2 sequence (P22102 1-1010): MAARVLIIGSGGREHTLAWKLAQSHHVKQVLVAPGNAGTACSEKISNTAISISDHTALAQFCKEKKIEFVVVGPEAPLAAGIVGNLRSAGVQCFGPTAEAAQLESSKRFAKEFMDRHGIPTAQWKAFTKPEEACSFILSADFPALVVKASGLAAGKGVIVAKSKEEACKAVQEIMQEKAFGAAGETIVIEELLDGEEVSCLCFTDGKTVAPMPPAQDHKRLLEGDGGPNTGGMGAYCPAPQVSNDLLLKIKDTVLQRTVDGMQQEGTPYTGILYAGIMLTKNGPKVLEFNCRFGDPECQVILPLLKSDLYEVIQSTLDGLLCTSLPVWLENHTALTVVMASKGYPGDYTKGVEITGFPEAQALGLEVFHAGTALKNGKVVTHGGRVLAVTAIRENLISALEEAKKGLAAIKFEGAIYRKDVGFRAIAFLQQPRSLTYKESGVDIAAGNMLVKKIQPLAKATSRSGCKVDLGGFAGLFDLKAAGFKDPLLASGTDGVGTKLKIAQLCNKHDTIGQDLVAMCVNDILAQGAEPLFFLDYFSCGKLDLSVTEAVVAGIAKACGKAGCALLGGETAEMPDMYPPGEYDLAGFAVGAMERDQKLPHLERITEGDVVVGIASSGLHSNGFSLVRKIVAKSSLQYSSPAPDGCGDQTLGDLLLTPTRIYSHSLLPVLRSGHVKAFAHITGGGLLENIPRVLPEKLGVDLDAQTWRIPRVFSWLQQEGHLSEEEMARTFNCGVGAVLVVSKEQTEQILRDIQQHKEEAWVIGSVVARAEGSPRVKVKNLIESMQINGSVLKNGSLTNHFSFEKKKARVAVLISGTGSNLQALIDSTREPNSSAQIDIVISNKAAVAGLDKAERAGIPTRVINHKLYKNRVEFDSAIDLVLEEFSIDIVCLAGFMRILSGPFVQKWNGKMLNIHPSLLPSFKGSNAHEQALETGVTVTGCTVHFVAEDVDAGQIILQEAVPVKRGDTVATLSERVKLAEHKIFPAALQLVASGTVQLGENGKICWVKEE
Put plainly: In situ GARFTase assay (14C-glycine incorporation into formyl glycinamide ribonucleotide). The class given is cell-based. Conditions: mean IC50, SEM in parentheses.

Data set [4] concerns R2/VC cells (vector control R2 CHO). Put plainly: Growth inhibition of vector control R2 CHO cells (Cell TiterBlue, 96 h). Conditions: Cricetulus griseus, read-out: Growth inhibition 50% inhibitory concentration, R2/VC. The format is cell-based, Chinese hamster. (In general: Resazurin is reduced to fluorescent resorufin, in cell work by metabolically active cells.)
Data set [5] concerns human KB cervical tumors as xenografts. Put plainly: In vivo evaluation in advanced stage KB tumor xenograft. Also on record: species or system SCID female mice. The method, then: SCID female mice bearing advanced stage human KB cervical tumors as xenografts (xenograft tumors) were administered compound AAG154353 of the present invention intravenously at various doses and schedules.
Mice were maintained on a Folic Acid deficient diet (Harlan-Teklad Diet #00434; Madison, Wis.) exclusively for approximately three weeks at the start of treatment. […] Thus, significant antitumor activity was detected. Toxicity as reflected in weight loss was modest.

Where [6] appears, read: Q2dx4 starting day 43, 500 mg/kg total dose IV.

Entries after “also recorded” stand apart in the source; their conditions may differ. Read-outs that look alike come from different tables or passages of the source. A value given as a limit tells only on which side of the number the result lay.

In the case of `Nc1nc2[nH]c(CCCCc3ccc(C(=O)N[C@@H](CCC(=O)O)C(=O)O)s3)cc2c(=O)[nH]1` [AAG154353, (S)-2-({5-[4-(2-amino-4-oxo-4,7-dihydro-3H-pyrrolo[2,3-d]pyrimidin-6-yl)-butyl]thiophene-2-carbonyl}-amino)-pentanedioic acid], in data set [1], the “Growth inhibition of hRFC-expressing PC43-10 cells (in words)” value is “Neither AAG154353 and AAG154360 showed appreciable growth inhibition; also recorded: nearly complete lack of drug activity”. Moreover, the IC50 in data set [1] (Cricetulus griseus, PC43-10, read-out: Growth inhibition (IC50, nM) hRFC PC43-10) is > 1000 nM; in data set [2] (read-out: Growth inhibition (IC50, nM) hRFC/FRα KB), 0.25 nM; in data set [2] (read-out: Growth inhibition (IC50, nM) hRFC/FRα KB (+FA)), > 1000 nM; in data set [3], 60 nM; on GARFTase it was 0.63 nM; in data set [4], > 1000 nM. The “Effect of folic acid co-treatment on growth inhibition of KB cells” value in data set [2] is “completely reversed growth inhibition”. In data set [5] (IV, three mice on various dose/schedules, tumors 446 to 650 mg at start, folic acid deficient diet), the “Tumor response of late stage KB xenografts” value is recorded as “tumors regressed completely”. The “Toxicity as reflected in weight loss” value in data set [5] (IV, various dose/schedules) is reported as “modest”. The compound also yielded a Tumor size in data set [5] (setting [6]) of 63 mg. Further, in data set [5] (setting [6]), the Tumor-free status entry was “tumor free up to day 60”. Further, the “Time mouse tumor free” value in data set [5] (Q3dx4 starting day 37, 750 mg/kg total dose IV) is on record as 30 days; in data set [5] (Q4dx3 starting day 48, 187.5 mg/kg total dose IV) it was 30 days.
